{"source": "patent US20070059785A1", "about": "“Biomarkers in cancer” (SMITHKLINE BEECHAM CORPORATION, priority 2003, published 2007)", "key": {"Erk1/2 [1]": {"tested_on": "Erk1/2", "test": "Western blot of p-Erk1/2 in HN5 cells", "format": "cell-based, human", "details": "for p-Erk1/2: HN5, exponentially growing, 72 h", "method": "(§1) The erbB2 overexpressing human breast adenocarcinoma cell line, BT474, was obtained from the American Type Culture Collection (Rockville, M, USA). […] The EGFR overexpressing LICR-LON-HN5 head and neck carcinoma cell line, HN5, was kindly provided by Helmout Modjtahedi at the Institute of Cancer Research, Surrey, U.K.\n(§2) For IP Western blots, equivalent amounts of protein were precleared with Protein G Plus/Protein A agarose overnight at 4° C. Precleared lysates were then incubated overnight at 4° C. with specific antibodies. Immune complexes were precipitated with Protein G Plus/Protein A agarose beads, washed in RIPA buffer and then boiled in sample loading buffer. Steady state levels of total Erk1/2 and activated Erk1/2 (p-Erk) as well as total AKT protein and activated AKT (p-AKT) protein were assessed by Western blot. […] Proteins were transferred to Immobilon-P or nitrocellulose membranes. Efficiency and equal loading of proteins was evaluated by Ponceau S staining. Membranes were blocked for 1 hr in TBS (25 mM Tris-HCl, pH 7.4, 150 mM NaCl, 2.7 mM KCl) containing 4% (w/v) lowfat milk or 3% BSA (w/v). Membranes were then probed with specific antibodies recognizing target proteins. Proteins were visualized with the SUPERSIGNAL® West Femto Maximum sensitivity substrate kit (Pierce).\nCell lysates were prepared and total Erk1/2 and activated Erk1/2 (p-Erk1/2) were assessed by Western blot."}, "HN5 cells": {"tested_on": "HN5 cells", "test": "Apoptosis and growth of HN5 cells", "format": "cell-based, human", "details": "data not shown"}, "Erk1/2 [2]": {"tested_on": "Erk1/2", "test": "Western blot of p-Erk1/2 in BT474 cells", "format": "cell-based, human", "details": "for p-Erk1/2: BT474, exponentially growing, 72 h", "method": "as §1, §2\nBT474 is an erbB2 overexpressing breast carcinoma line that also expresses EGFR, albeit at lower levels. BT474 cells constitutively express activated erbB2 (p-Tyr/erbB2). […] Cell lysates were prepared and total Erk1/2 and activated Erk1/2 (p-Erk1/2) were assessed by Western blot."}, "Hb4a cells": {"tested_on": "Hb4a cells", "test": "Hb4a cell growth, viable cell count by trypan blue exclusion", "format": "cell-based", "details": "Homo sapiens, 72 h, serum-free, three independent experiments, read-out: inhibition of cell growth compared with vehicle treated controls", "method": "Exponentially growing Hb4a cells were cultured in 35 mm petri dishes with serum-free medium containing 1.5% BSA. […] Viable cells were counted after 72 h using trypan blue exclusion."}, "solid tumors": {"tested_on": "solid tumors", "test": "Open-label clinical study, clinical response (RECIST)", "format": "in vivo, human"}, "[3]": {"details": "patients with >70% decrease in pERK index"}}, "data": [{"smiles": "CS(=O)(=O)CCNCc1ccc(-c2ccc3ncnc(Nc4ccc(OCc5cccc(F)c5)c(Cl)c4)c3c2)o1", "note": "[GW572016, N-{3-Chloro-4-[(3-fluorobenzyl)oxy]phenyl}-6-[5-({[2-(methylsulfonyl)ethyl]amino}methyl)-2-furyl]-4-quinazolinamine]", "values": [{"measurement": "downstream p-Erk1/2", "setting": "Erk1/2 [1]; HN5, 5 μM, 24 h serum-free, not reversed by EGF", "result": "inhibited"}, {"measurement": "total Erk1/2 steady state protein levels", "setting": "Erk1/2 [1]; HN5, 72 h, GW572016 0.5 or 1 μM, Herceptin 10 μg/ml", "result": "Neither Herceptin™ nor GW572016 reduced"}, {"measurement": "p-Erk1/2", "setting": "Erk1/2 [1]; 500 nM", "result": "inhibited"}, {"measurement": "p-Erk1/2", "setting": "Erk1/2 [1]; 1 μM", "result": "inhibited"}, {"measurement": "apoptosis", "setting": "HN5 cells", "result": "significant apoptosis was not seen"}, {"measurement": "cell growth", "setting": "HN5 cells", "result": "growth arrest"}, {"measurement": "EGF stimulation of p-Erk1/2", "setting": "Erk1/2 [2]; BT474, 1 μM, 24 h serum-free, EGF 50 ng/ml", "result": "inhibited"}, {"measurement": "total Erk1/2 steady state protein levels", "setting": "Erk1/2 [2]; BT474, 72 h, GW572016 0.5 or 1 μM, Herceptin 10 μg/ml", "result": "Neither Herceptin™ nor GW572016 reduced"}, {"measurement": "p-Erk1/2", "setting": "Erk1/2 [2]; 500 nM", "result": "inhibited"}, {"measurement": "p-Erk1/2", "setting": "Erk1/2 [2]; 1 μM", "result": "inhibited"}, {"measurement": "inhibition at 2.5 µM", "setting": "Hb4a cells", "result": 50, "unit": "%"}, {"measurement": "metastatic subcutaneous nodules", "setting": "solid tumors; patient 361, metastatic breast cancer, 1200 mg/day, Day 21", "result": "almost all of their metastatic subcutaneous nodules had completely regressed"}, {"measurement": "metastatic lymph node that was sequentially biopsied", "setting": "solid tumors; patient 364, 1600 mg/day, Day 21", "result": "reduced in size"}, {"measurement": "sensitivity of the patient's tumor to treatment", "setting": "solid tumors; patient 425, inflammatory breast cancer, 1200 mg once per day", "result": "very sensitive"}, {"measurement": "Partial Response at eight weeks", "setting": "solid tumors; [3]", "result": "Partial Response: 2/5"}, {"measurement": "Progression at eight weeks", "setting": "solid tumors; [3]", "result": "one and Progression: 1/5"}, {"measurement": "Stable Disease at eight weeks", "setting": "solid tumors; [3]", "result": "Stable Disease: 2/5"}, {"measurement": "Partial Response at eight weeks", "setting": "solid tumors; patients with no decrease or increase in pERK index", "result": "Partial Response: 0/3"}]}]}
